Measurements: patent publication US20080255104A1, “Nsaid Compositions” (EQUITECH CORPORATION, priority 2004, published 2008)
Values after ≈ are worked out from the molar mass of the structure shown. Marks after values point to notes of the source that are not given here.

Key:
[1] = 200 mg and 600 mg doses, dental surgery; cited from earlier work
[2] = Oral bioavailability of ibuprofen crushed tablets in control and vagal-suppressed (Pain Model) rats; assay type: in vivo, Sprague-Dawley rats; settings: Pain Model (vagal-suppressed, propantheline) rats, 20 mg/kg oral
From the text: Delayed absorption caused by vagal suppression that has previously been reported in the literature (e.g., Jamali & Axelson, 1997) was used to test the absorption rates of new meloxicam formulations.
The animal models are adult male Sprague-Dawley rats with body weight of 250-300 g, and which were cared for in accordance with the principles and guidelines of the Canadian Council of Animal Care. All rats were catheterized in the right jugular vein for sample collection.
An animal model having suppressed vagal properties were produced by administering (intraperitoneal injection) to the rats two 20 mg/kg doses of propantheline (test, n=6), an anticholinergic agent with known vagal suppressive properties, the first dose at 2 hours prior to administration of an NSAID, and the second at 1 hour prior.
The tablets were crushed gently and small pieces were administered into the stomach via a plastic tube followed by 0.5 mL tap water. Animals were fasted after the first dose of propantheline until 4 hours post-meloxicam dose. They had free access to water.

[3] = pH 2-4; cited from earlier work
[4] = Solubility of meloxicam in simulated gastric fluid pH 1.2; assay type: physicochemical; settings: for solubility at 72 h: simulated gastric fluid, pH 1.2, simulated gastric fluid, thermodynamic from solid
Experimental: Excess of different compositions and pure meloxicam powder were transferred into test tubes.
10 ml of USP simulated gastric fluid, pH 1.2 (SGF) was added.
Samples were shaken for 72 h at room temperature.
Filtered solutions were analyzed for meloxicam.

AUC (0-8) [2] [μg/h/mL^−1]	Cmax [2]	Tmax [2] [min]	solubility in simulated gastric fluid when loaded on Neusilin® and mixed with Gelucire® 44/14 ([4]; pH 1.2, FIG. 7)	solubility at 72 h ([4]; pH 1.2, combination of Gelucire® and Neusilin®) [µg/mL]	solubility at 72 h ([4]; pH 1.2, meloxicam alone) [µg/mL]	solubility at 72 h ([4]; pH 1.2, with Gelucire® alone) [µg/mL]	solubility at 72 h ([4]; pH 1.2, with the metal silicate alone) [µg/mL]	SMILES	delay in the mean time to peak concentration caused by surgery [1]	minimum solubility in buffered aqueous systems [3]
81.8	13.8* μg/mL	45						CC(C)Cc1ccc(C(C)C(=O)O)cc1 (racemic) [ibuprofen]	two	
			substantially increased	11500	7 (≈ 19.9 µM)	10 (≈ 28.5 µM)	23 to 41 (≈ 65.5 to 117 µM)	Cc1cnc(NC(=O)C2=C(O)c3ccccc3S(=O)(=O)N2C)s1 [meloxicam]		less than 0.5 µg/ml
